Data from US5264355A, “Methlating enzyme from streptomyces MA6858” (Merck & Co., Inc., priority 1992, dated 1993).
One block for each molecule: values may come before it.

Key:
[1] = biological target: T1, 31-O-desmethylFK-506 O-methyltransferase (FKMT) (Streptomyces tacrolimicus, UniProt P74838); assay: FKMT O-methyltransferase assay / kinetic analysis; format: biochemical, Streptomyces sp. MA6858; conditions: substrate A as variable, above 50 uM; fixed SAM 220 μM
T1 construct: endogenous in cells; host or cells: Native enzyme purified in house from mycelium of Streptomyces MA6858 (ATCC 55098), not recombinant; for the kinetics, purified through the second MonoQ column
T1 sequence (P74838 1-260): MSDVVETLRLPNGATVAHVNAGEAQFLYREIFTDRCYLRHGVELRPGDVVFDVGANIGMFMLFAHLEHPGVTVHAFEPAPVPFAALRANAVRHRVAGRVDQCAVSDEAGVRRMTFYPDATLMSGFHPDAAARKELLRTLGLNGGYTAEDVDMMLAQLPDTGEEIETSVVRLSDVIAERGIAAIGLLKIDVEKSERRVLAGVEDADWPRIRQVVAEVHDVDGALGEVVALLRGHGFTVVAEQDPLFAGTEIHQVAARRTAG
Method: (§1) This enzyme, is SAM dependent and has requirement for Mg^+2 with optimum concentration of 4 mM. […] The temperature effect on the methylation reaction was examined at 0°, 22°, 24°, 34°, 37°, and 44° C. The optimum temperature for the reaction was determined to be at 34° C. Above this temperature there was a problem with substrate decomposition. Under the established incubation condition in which 31 uM of substrate A and 220 uM of SAM were used, the rate of the methylation reaction was linear up to 35 min with protein concentration up to 100 ug.
(§2) For the kinetic studies, a preparation of the FKMT enzyme which had been purified through the second MonoQ column chromatography was used. Under conditions for the initial velocity measurement, apparent Km and Vmax were determined for 31-O-desmethyFK-506 (substrate A) at one saturating concentration of SAM ([…]). […]
(§3) The assay was carried out in 1 ml. mixture containing 0.025 mM 31-desmethylFK-506, 4 mM MgSO4 and different quantities of the enzyme source in 50 mM phosphate buffer, pH 7.5. […] The plastic sheet was developed in chloroform:methanol (9:1) and area showing standard FK-506 under UV-light was cut and the radioactivity in the cut-strip was measured and the amount of the product formed was calculated.

[2] = test system: in vitro immune systems; conditions: J. Antibiotics 1987, 40, 1256; cited from earlier work
[3] = substrate: C=CC[C@@H]1/C=C(\C)C[C@H](C)C[C@H](OC)[C@H]2O[C@@](O)(C(=O)C(=O)N3CCCC[C@H]3C(=O)O[C@H](/C(C)=C/[C@@H]3CC[C@@H](O)[C@H](O)C3)[C@H](C)[C@@H](O)CC1=O)[C@H](C)C[C@@H]2OC; assay: FKMT O-methyltransferase assay / kinetic analysis; format: biochemical, Streptomyces sp. MA6858; conditions: other: FKMT purified through second MonoQ column, initial velocity, pH 7.5
Method: as §1, §2, §3

substrate inhibition [1]: no substrate inhibition
Molecule: C=CC[C@@H]1/C=C(\C)C[C@H](C)C[C@H](OC)[C@H]2O[C@@](O)(C(=O)C(=O)N3CCCC[C@H]3C(=O)O[C@H](/C(C)=C/[C@@H]3CC[C@@H](O)[C@H](O)C3)[C@H](C)[C@@H](O)CC1=O)[C@H](C)C[C@@H]2OC [31-O-desmethyFK-506]

Molecule: C=CC[C@@H]1/C=C(\C)C[C@H](C)C[C@H](OC)[C@H]2O[C@@](O)(C(=O)C(=O)N3CCCC[C@H]3C(=O)O[C@H](/C(C)=C/[C@@H]3CC[C@@H](O)[C@H](OC)C3)[C@H](C)[C@@H](O)CC1=O)[C@H](C)C[C@@H]2OC [FR-900506, 17-allyl-1,14-dihydroxy-12-[2'-(4"-hydroxy-3"-methoxycyclohexyl)-1'-methylvinyl]-23,25-dimethoxy-13,19,21,27-tetramethyl-11,28-dioxa-4-azatricyclo-[22.3.1.0^4,9]-octacos-18-ene-2,3,10,16-tetraone]
effectiveness relative to cyclosporin in the suppression of in vitro immune systems [2]: 100 times

B1: 31-O-desmethylFK-506 O-methyltransferase (FKMT) (Streptomyces tacrolimicus) (protein)
chain: MSDVVETLRLPNGATVAHVNAGEAQFLYREIFTDRCYLRHGVELRPGDVVFDVGANIGMFMLFAHLEHPGVTVHAFEPAPVPFAALRANAVRHRVAGRVDQCAVSDEAGVRRMTFYPDATLMSGFHPDAAARKELLRTLGLNGGYTAEDVDMMLAQLPDTGEEIETSVVRLSDVIAERGIAAIGLLKIDVEKSERRVLAGVEDADWPRIRQVVAEVHDVDGALGEVVALLRGHGFTVVAEQDPLFAGTEIHQVAARRTAG
notes: Washed mycelium was used for the preparation of the cell-free extract; endogenous in cells; host or cells: Native enzyme purified in house from mycelium of Streptomyces MA6858 (ATCC 55098), not recombinant; for the kinetics, purified through the second MonoQ column
Km ([3]; saturating SAM (220 uM)): 23.21 µM
Vmax ([3]; saturating SAM (220 mM as printed)): 2.33 nmol/mg/min
